Measured values reported in PubChem BioAssay AID2060490 (Molecular Pharmacology Branch, DTP, NCI, 2025).

Tested on: 885512-296-R-J2-PDC complex spheroid viability
Assay: Anticancer human tumor 885512-296-R-J2-PDC patient-derived breast carcinoma cell line growth inhibition [GQUAD]
Settings: for IC50: curve of first compound; for viability, T/C: stronger effect = lower value
Outline: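 Tumor cells were grown as complex spheroids with HUVEC endothelial cells and mesenchymal stem cells as stroma. G-quadruplex stabilizers were combined with targeted agents over half-log dilutions from near the clinical Cmax, or from 10 microM.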

[1] = second compound 0.0316 µM, first compound 0.0316 µM
[2] = second compound 0.0316 µM, first compound 0.1 µM
[3] = second compound 0.0316 µM, first compound 0.316 µM
[4] = second compound 0.0316 µM, first compound 1 µM
[5] = second compound 0.0316 µM, first compound 3.16 µM
[6] = second compound 0.0316 µM, first compound 10 µM
[7] = second compound 0.1 µM, first compound 0.0316 µM
[8] = second compound 0.1 µM, first compound 0.1 µM
[9] = second compound 0.1 µM, first compound 0.316 µM
[10] = second compound 0.1 µM, first compound 1 µM
[11] = second compound 0.1 µM, first compound 3.16 µM
[12] = second compound 0.1 µM, first compound 10 µM
[13] = second compound 0.316 µM, first compound 0.0316 µM
[14] = second compound 0.316 µM, first compound 0.1 µM
[15] = second compound 0.316 µM, first compound 0.316 µM
[16] = second compound 0.316 µM, first compound 1 µM
[17] = second compound 0.316 µM, first compound 3.16 µM
[18] = second compound 0.316 µM, first compound 10 µM
[19] = second compound 1 µM, first compound 0.0316 µM
[20] = second compound 1 µM, first compound 0.1 µM
[21] = second compound 1 µM, first compound 0.316 µM
[22] = second compound 1 µM, first compound 1 µM
[23] = second compound 1 µM, first compound 3.16 µM
[24] = second compound 1 µM, first compound 10 µM
[25] = second compound 3.16 µM, first compound 0.0316 µM
[26] = second compound 3.16 µM, first compound 0.1 µM
[27] = second compound 3.16 µM, first compound 0.316 µM
[28] = second compound 3.16 µM, first compound 1 µM
[29] = second compound 3.16 µM, first compound 3.16 µM
[30] = second compound 3.16 µM, first compound 10 µM
[31] = second compound 10 µM, first compound 0.0316 µM
[32] = second compound 10 µM, first compound 0.1 µM
[33] = second compound 10 µM, first compound 0.316 µM
[34] = second compound 10 µM, first compound 1 µM
[35] = second compound 10 µM, first compound 3.16 µM
[36] = second compound 10 µM, first compound 10 µM
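Also: spheroids exposed to the compounds for one week.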
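For viability, T/C in this document: percent of tumor spheroid viability relative to DMSO vehicle control wells.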

SMILES: CC1COCCN1c1cc(-c2ccnn2C)c2ccnc(-c3ccn[nH]3)c2n1 (stereo not drawn) + Cc1cnc(CNC(=O)c2c(=O)c3ccc(N4CCCN(C)CC4)nc3n3c2sc2ccccc23)cn1
- IC50 (second compound 0.0316 µM): < 31.6 nM
- IC50 (second compound 0.1 µM): < 31.6 nM
- IC50 (second compound 0.316 µM): < 31.6 nM
- IC50 (second compound 1 µM): < 31.6 nM
- IC50 (second compound 3.16 µM): < 31.6 nM
- IC50 (second compound 10 µM): < 31.6 nM
- viability, T/C [1]: 7.27%
- viability, T/C [2]: 3%
- viability, T/C [3]: 3.14%
- viability, T/C [4]: 2.98%
- viability, T/C [5]: 4.32%
- viability, T/C [6]: 6.71%
- viability, T/C [7]: 7.98%
- viability, T/C [8]: 3.24%
- viability, T/C [9]: 2.68%
- viability, T/C [10]: 3.6%
- viability, T/C [11]: 4.73%
- viability, T/C [12]: 6.8%
- viability, T/C [13]: 6.5%
- viability, T/C [14]: 4.72%
- viability, T/C [15]: 4.23%
- viability, T/C [16]: 4.64%
- viability, T/C [17]: 5.38%
- viability, T/C [18]: 6.91%
- viability, T/C [19]: 7.32%
- viability, T/C [20]: 5.67%
- viability, T/C [21]: 4.04%
- viability, T/C [22]: 5.5%
- viability, T/C [23]: 6.49%
- viability, T/C [24]: 7.5%
- viability, T/C [25]: 0.41%
- viability, T/C [26]: 0.9%
- viability, T/C [27]: 0.43%
- viability, T/C [28]: 5.3%
- viability, T/C [29]: 6.82%
- viability, T/C [30]: 6.13%
- viability, T/C [31]: 0.03%
- viability, T/C [32]: 0.1%
- viability, T/C [33]: 0.12%
- viability, T/C [34]: 0.06%
- viability, T/C [35]: 0.1%
- viability, T/C [36]: 0.11%

SMILES: CCCS(=O)(=O)Nc1ccc(F)c(C(=O)c2c[nH]c3ncc(-c4ccc(Cl)cc4)cc23)c1F + Cc1cnc(CNC(=O)c2c(=O)c3ccc(N4CCCN(C)CC4)nc3n3c2sc2ccccc23)cn1
- IC50 (second compound 0.0316 µM): > 10000 nM
- IC50 (second compound 0.1 µM): > 10000 nM
- IC50 (second compound 0.316 µM): < 31.6 nM
- IC50 (second compound 1 µM): < 31.6 nM
- IC50 (second compound 3.16 µM): < 31.6 nM
- IC50 (second compound 10 µM): < 31.6 nM
- viability, T/C [1]: 97.5%
- viability, T/C [2]: 93.9%
- viability, T/C [3]: 97.1%
- viability, T/C [4]: 91.7%
- viability, T/C [5]: 102%
- viability, T/C [6]: 58.8%
- viability, T/C [7]: 65.8%
- viability, T/C [8]: 61%
- viability, T/C [9]: 64.3%
- viability, T/C [10]: 67.6%
- viability, T/C [11]: 71.2%
- viability, T/C [12]: 41.5%
- viability, T/C [13]: 30.3%
- viability, T/C [14]: 24.9%
- viability, T/C [15]: 22.9%
- viability, T/C [16]: 34.2%
- viability, T/C [17]: 45.6%
- viability, T/C [18]: 25.4%
- viability, T/C [19]: 19.2%
- viability, T/C [20]: 26%
- viability, T/C [21]: 26.4%
- viability, T/C [22]: 33.6%
- viability, T/C [23]: 36%
- viability, T/C [24]: 22.7%
- viability, T/C [25]: 20.9%
- viability, T/C [26]: 29.3%
- viability, T/C [27]: 26.5%
- viability, T/C [28]: 25.8%
- viability, T/C [29]: 24.5%
- viability, T/C [30]: 0.29%
- viability, T/C [31]: 0.15%
- viability, T/C [32]: 0.16%
- viability, T/C [33]: 0.18%
- viability, T/C [34]: 0.17%
- viability, T/C [35]: 0.15%
- viability, T/C [36]: 0.18%

SMILES: Cc1cccc(N(C)C(=O)C2C(O)CCN2c2nc(C)cc(C(F)(F)F)c2C#N)c1 (stereo not drawn) + Cc1cnc(CNC(=O)c2c(=O)c3ccc(N4CCCN(C)CC4)nc3n3c2sc2ccccc23)cn1
- IC50 (second compound 0.0316 µM): > 10000 nM
- IC50 (second compound 0.1 µM): > 10000 nM
- IC50 (second compound 0.316 µM): < 31.6 nM
- IC50 (second compound 1 µM): < 31.6 nM
- IC50 (second compound 3.16 µM): < 31.6 nM
- IC50 (second compound 10 µM): < 31.6 nM
- viability, T/C [1]: 93.2%
- viability, T/C [2]: 86.2%
- viability, T/C [3]: 87.4%
- viability, T/C [4]: 82.8%
- viability, T/C [5]: 91.4%
- viability, T/C [6]: 75.6%
- viability, T/C [7]: 65.8%
- viability, T/C [8]: 64.4%
- viability, T/C [9]: 63.1%
- viability, T/C [10]: 61.2%
- viability, T/C [11]: 52.5%
- viability, T/C [12]: 63.9%
- viability, T/C [13]: 31%
- viability, T/C [14]: 36.2%
- viability, T/C [15]: 35.8%
- viability, T/C [16]: 33.9%
- viability, T/C [17]: 28.6%
- viability, T/C [18]: 28.6%
- viability, T/C [19]: 26.3%
- viability, T/C [20]: 29%
- viability, T/C [21]: 28.4%
- viability, T/C [22]: 25.6%
- viability, T/C [23]: 27.3%
- viability, T/C [24]: 28.7%
- viability, T/C [25]: 43.4%
- viability, T/C [26]: 25.7%
- viability, T/C [27]: 30.3%
- viability, T/C [28]: 30.5%
- viability, T/C [29]: 28.5%
- viability, T/C [30]: 30.2%
- viability, T/C [31]: 0.21%
- viability, T/C [32]: 0.26%
- viability, T/C [33]: 0.26%
- viability, T/C [34]: 0.25%
- viability, T/C [35]: 0.25%
- viability, T/C [36]: 0.25%

SMILES: O=C(NO)c1cnc(N2CCN(S(=O)(=O)c3ccc4ccccc4c3)CC2)nc1 + Cc1cnc(CNC(=O)c2c(=O)c3ccc(N4CCCN(C)CC4)nc3n3c2sc2ccccc23)cn1
- IC50 (second compound 0.0316 µM): 64.4 nM
- IC50 (second compound 0.1 µM): < 31.6 nM
- IC50 (second compound 0.316 µM): < 31.6 nM
- IC50 (second compound 1 µM): < 31.6 nM
- IC50 (second compound 3.16 µM): < 31.6 nM
- IC50 (second compound 10 µM): < 31.6 nM
- viability, T/C [1]: 65.9%
- viability, T/C [2]: 38.7%
- viability, T/C [3]: 23.6%
- viability, T/C [4]: 5.79%
- viability, T/C [5]: 0.51%
- viability, T/C [6]: 0.13%
- viability, T/C [7]: 42.8%
- viability, T/C [8]: 37.7%
- viability, T/C [9]: 27.8%
- viability, T/C [10]: 6.31%
- viability, T/C [11]: 0.49%
- viability, T/C [12]: 0.43%
- viability, T/C [13]: 22.8%
- viability, T/C [14]: 19.5%
- viability, T/C [15]: 21.7%
- viability, T/C [16]: 7.7%
- viability, T/C [17]: 0.43%
- viability, T/C [18]: 0.1%
- viability, T/C [19]: 19.3%
- viability, T/C [20]: 14.9%
- viability, T/C [21]: 13.7%
- viability, T/C [22]: 0.1%
- viability, T/C [23]: 0.07%
- viability, T/C [24]: 0.11%
- viability, T/C [25]: 10%
- viability, T/C [26]: 6.5%
- viability, T/C [27]: 0.13%
- viability, T/C [28]: 0.1%
- viability, T/C [29]: 0.09%
- viability, T/C [30]: 0.12%
- viability, T/C [31]: 0.07%
- viability, T/C [32]: 0.15%
- viability, T/C [33]: 0.15%
- viability, T/C [34]: 0.12%
- viability, T/C [35]: 0.15%
- viability, T/C [36]: 0.17%
